Reference: patent US20140142352A1, “BUTANOL PURIFICATION” (BUTAMAX ADVANCED BIOFUELS LLC, priority 2012, published 2014)
Read-outs that look alike come from different tables or passages of the source.

How the values were obtained:
[1] = Liquid-liquid extraction of carboxylic acids from fermentation medium into oleyl alcohol at different pH; assay type: physicochemical
Description: (§1) The samples were subsequently incubated in a shaker at 30° C. and 300 rpm for 30 minutes. […] Finally, the aqueous broth samples were withdrawn from the upper section of the bottom phase for further analysis. […] The flow rate was 0.60 ml/min, the column temperature 40° C., the injection volume 10 ul and the run time was 58 minutes.

[2] = 30 min, pH 5.3
Description: The emulsions were rigorously vortexed and incubated at 30° C. and 300 rpm for 30 minutes. The emulsions were rigorously vortexed again, 1 mL sample was withdrawn and centrifuged in an Eppendorf table top centrifuge for 5 minutes at 16,000 rpm. Samples were taken from the top (extractant) as well as bottom (aqueous broth) phase and stored in the freezer at −20° C. for further analysis.
Aqueous broth samples were filtered through a 0.20 μm filter (Nanosept MF, Pall) and analyzed by HPLC. […] The flow rate was 0.08 ml/min, column temperature was 60° C., the injection volume was 10 ul and the sample run time was 38 minutes.
In subsequent calculations, the volume of water was corrected for the extracted volume, but no volume increase of the diluent was considered.
Partitioning of the deprotonated form of the acid was neglected, and only the protonated form was assumed to transition into the diluent oleyl alcohol.

[3] = Liquid-liquid extraction of isobutyric acid from fermentation medium into SOFA at different pH; assay type: physicochemical
Description: as §1

[4] = Liquid-liquid extraction of isobutyric acid from fermentation medium into oleic acid at different pH; assay type: physicochemical
Description: as §1

[5] = Liquid-liquid extraction of isobutyric acid from fermentation medium into COFA at different pH; assay type: physicochemical
Description: as §1

anaerobic inoculum = assay: Acetate Toxicity Assays (ATA); assay type: cell-based
Description: For the BMP tests, iBA provided the sole source of substrate over a range of conditions. Feed controls were prepared at organic loadings that spanned the lower and upper range of loadings used in the ATA and BMP tests, and gas production was monitored. Samples were prepared in triplicate with the seed concentration for all test bottles being 2000 mg/L. The feed control and ATA biodegradable synthetic feed composition contained 4000 mg/L acetate and 2000 mg/L propionate. The inorganic nutrient media used was similar to media presented in Table 5.1 of […], Anaerobic Biotechnology for Industrial […], Vanderbilt University, […], Nashville, p 115 (1996). The bottles were maintained at a temperature of 35° C.

[6] = Reactive liquid-liquid extraction from aqueous compound solution into OA or OA with TBP, TOA or A336: aqueous concentrations; assay type: physicochemical; settings: pH=5.3, 30° C.
Description: The emulsions were rigorously vortexed and incubated at 30° C. and 300 rpm for 30 minutes. The emulsions were rigorously vortexed again, 1 mL sample was withdrawn and centrifuged in an Eppendorf table top centrifuge for 5 minutes at 16,000 rpm. Samples were taken from the top (extractant) as well as bottom (aqueous broth) phase and stored in the freezer at −20° C. for further analysis. […] The flow rate was 0.08 ml/min, column temperature was 60° C., the injection volume was 10 ul and the sample run time was 38 minutes.

isobutanologen PNY 2242 = assay: SSF corn mash fermentation of isobutanologen with extractant layer; assay type: cell-based
Description: An isobutanologen was cultivated in 20 ml of corn mash in 125 ml shake flasks with a simultaneous saccharification and fermentation (SSF) process. […] The culture was incubated at 30° C. and 250 rpm for 24 hours in an Innova Laboratory Shaker (New Brunswick Scientific, Edison, N.J.). […] Resulting stage 2 cultures with total culture volume of 103 ml were incubated again at 250 rpm for 24 hours. […] Cultures were spun down at 9500 rpm for 20 minutes and supernatants were discarded. Cell pellet was re-suspended into 20 ml of production medium in the tubes.
The 20 ml cell cultures in the tubes were transferred into the shake flasks pre-filled with solvent. 50 μl of distillase added, and the shake flasks were closed with a close lid (for low oxygen/anaerobic cultivation). The flasks were subsequently incubated at 30° C. and 250 rpm for 48 hours. Each flask was sampled twice a day to measure glucose via YSI. After 48 hours, 2 ml aqueous and 1 ml of solvent phase were saved for exo-metabolite, starch and extractant analysis.
Extracellular compound analysis in supernatant was accomplished by HPLC. […] Flow rate was 0.60 ml/min, column temperature 40° C., injection volume 10 ul and run time 58 min.
For starch analysis, culture samples were centrifuged for 5 minutes at 14,000 rpm and solvent atop the aqueous layer was removed. Remaining aqueous fraction was re-suspended, thoroughly mixed and 0.30 g of the mixture transferred into previously weighted vials. […] Finally the samples were incubated for 5 minutes at 99° C. and 1100 rpm, transferred to previously weighted 10 mL volumetric flasks, filled at level with water, weights were recorded, 400 μl of the solution filtered through a centrifugal filter and subjected to HPLC analysis.
The cultures contained a second layer with either oleyl alcohol (OA) or an OA phase containing different portions of either trioctylamine (TOA) or aliquate for liquid-liquid extraction (LLX).

[7] = pH 3.14, ISPR ratio (Aq):(Oleyl Alcohol) 1:1
[8] = pH 3.14, ISPR ratio (Aq):(Oleyl Alcohol) 1:3
[9] = pH 4.94, ISPR ratio (Aq):(Oleyl Alcohol) 1:1
[10] = pH 4.94, ISPR ratio (Aq):(Oleyl Alcohol) 1:3
[11] = pH 7.24, ISPR ratio (Aq):(Oleyl Alcohol) 1:1
[12] = pH 7.24, ISPR ratio (Aq):(Oleyl Alcohol) 1:3
[13] = 2 mL extractant on 2 mL aqueous solution
[14] = 6 mL extractant on 2 mL aqueous solution
[15] = 10 mL extractant on 2 mL aqueous solution

CC(=O)O [Acetic Acid, acetic acid]
Conc. of acid in aqueous broth after extraction [1, 7]: 140040 µM | Conc. of acid in aqueous broth after extraction [1, 8]: 106430 µM | Conc. of acid in aqueous broth after extraction [1, 9]: 162730 µM | Conc. of acid in aqueous broth after extraction [1, 10]: 159230 µM | Conc. of acid in aqueous broth after extraction [1, 11]: 169150 µM | Conc. of acid in aqueous broth after extraction [1, 12]: 173630 µM

CC(C)(O)CC(=O)O [HMB]
Conc. of acid in aqueous broth after extraction [1, 7]: 54070 µM | Conc. of acid in aqueous broth after extraction [1, 8]: 40280 µM | Conc. of acid in aqueous broth after extraction [1, 9]: 72000 µM | Conc. of acid in aqueous broth after extraction [1, 10]: 71860 µM | Conc. of acid in aqueous broth after extraction [1, 11]: 72460 µM | Conc. of acid in aqueous broth after extraction [1, 12]: 73310 µM

CC(C)CO [Isobutanol, 2-methyl-1-propanol]
Partition coefficients (P) [HA] org/aq [2]: 2.97 mol/mol

CC(C)C(=O)O [Isobutyric Acid, isobutyric acid]
Conc. of acid in aqueous broth after extraction [1, 7]: 19770 µM | Conc. of acid in aqueous broth after extraction [1, 8]: 8100 µM | Conc. of acid in aqueous broth after extraction [1, 9]: 46140 µM | Conc. of acid in aqueous broth after extraction [1, 10]: 30830 µM | Conc. of acid in aqueous broth after extraction [1, 11]: 93360 µM | Conc. of acid in aqueous broth after extraction [1, 12]: 91950 µM | Conc. Isobutyric Acid (%) ([3]; pH 3.93, ISPR ratio (Aq):(SOFA) 1:1): 31.37% | Conc. Isobutyric Acid (%) ([3]; pH 3.93, ISPR ratio (Aq):(SOFA) 1:3): 12.68% | Conc. Isobutyric Acid (%) ([3]; pH 4.92, ISPR ratio (Aq):(SOFA) 1:1): 53.76% | Conc. Isobutyric Acid (%) ([3]; pH 4.92, ISPR ratio (Aq):(SOFA) 1:3): 27.63% | Conc. Isobutyric Acid (%) ([3]; pH 6.64, ISPR ratio (Aq):(SOFA) 1:1): 74.48% | Conc. Isobutyric Acid (%) ([3]; pH 6.64, ISPR ratio (Aq):(SOFA) 1:3): 33.23% | Conc. Isobutyric Acid (%) ([4]; pH 4.08, ISPR ratio (Aq):(Oleic Acid) 1:1): 29.60% | Conc. Isobutyric Acid (%) ([4]; pH 4.08, ISPR ratio (Aq):(Oleic Acid) 1:3): 13.00% | Conc. Isobutyric Acid (%) ([4]; pH 4.82, ISPR ratio (Aq):(Oleic Acid) 1:1): 49.16% | Conc. Isobutyric Acid (%) ([4]; pH 4.82, ISPR ratio (Aq):(Oleic Acid) 1:3): 23.36% | Conc. Isobutyric Acid (%) ([4]; pH 6.95, ISPR ratio (Aq):(Oleic Acid) 1:1): 67.35% | Conc. Isobutyric Acid (%) ([4]; pH 6.95, ISPR ratio (Aq):(Oleic Acid) 1:3): 28.60% | Conc. Isobutyric Acid (%) ([5]; pH 4.08, ISPR ratio (Aq):(COFA) 1:1): 29.81% | Conc. Isobutyric Acid (%) ([5]; pH 4.08, ISPR ratio (Aq):(COFA) 1:3): 12.81% | Conc. Isobutyric Acid (%) ([5]; pH 4.82, ISPR ratio (Aq):(COFA) 1:1): 52.89% | Conc. Isobutyric Acid (%) ([5]; pH 4.82, ISPR ratio (Aq):(COFA) 1:3): 30.00% | Conc. Isobutyric Acid (%) ([5]; pH 6.95, ISPR ratio (Aq):(COFA) 1:1): 70.40% | Conc. Isobutyric Acid (%) ([5]; pH 6.95, ISPR ratio (Aq):(COFA) 1:3): 31.27% | Cumulative Gas Production (% Theoretical Max) (anaerobic inoculum; ATA-syn 550 ppm iBA, Day 2): 18 % Theoretical Max | Cumulative Gas Production (% Theoretical Max) (anaerobic inoculum; ATA-syn 550 ppm iBA, Day 4): 45 % Theoretical Max | Cumulative Gas Production (% Theoretical Max) (anaerobic inoculum; ATA-syn 550 ppm iBA, Day 6): 65 % Theoretical Max | Cumulative Gas Production (% Theoretical Max) (anaerobic inoculum; ATA-syn 550 ppm iBA, Day 10): 82 % Theoretical Max | Cumulative Gas Production (% Theoretical Max) (anaerobic inoculum; ATA-syn 550 ppm iBA, Day 12): 85 % Theoretical Max | Cumulative Gas Production (% Theoretical Max) (anaerobic inoculum; ATA-syn 550 ppm iBA, Day 15): 86 % Theoretical Max | Cumulative Gas Production (% Theoretical Max) (anaerobic inoculum; ATA-syn 825 ppm iBA, Day 2): 14 % Theoretical Max | Cumulative Gas Production (% Theoretical Max) (anaerobic inoculum; ATA-syn 825 ppm iBA, Day 4): 36 % Theoretical Max | Cumulative Gas Production (% Theoretical Max) (anaerobic inoculum; ATA-syn 825 ppm iBA, Day 6): 56 % Theoretical Max | Cumulative Gas Production (% Theoretical Max) (anaerobic inoculum; ATA-syn 825 ppm iBA, Day 10): 82 % Theoretical Max | Cumulative Gas Production (% Theoretical Max) (anaerobic inoculum; ATA-syn 825 ppm iBA, Day 12): 83 % Theoretical Max | Cumulative Gas Production (% Theoretical Max) (anaerobic inoculum; ATA-syn 825 ppm iBA, Day 15): 84 % Theoretical Max | Cumulative Gas Production (% Theoretical Max) (anaerobic inoculum; ATA-syn 1100 ppm iBA, Day 2): 14 % Theoretical Max | Cumulative Gas Production (% Theoretical Max) (anaerobic inoculum; ATA-syn 1100 ppm iBA, Day 4): 36 % Theoretical Max | Cumulative Gas Production (% Theoretical Max) (anaerobic inoculum; ATA-syn 1100 ppm iBA, Day 6): 51 % Theoretical Max | Cumulative Gas Production (% Theoretical Max) (anaerobic inoculum; ATA-syn 1100 ppm iBA, Day 10): 82 % Theoretical Max | Cumulative Gas Production (% Theoretical Max) (anaerobic inoculum; ATA-syn 1100 ppm iBA, Day 12): 85 % Theoretical Max | Cumulative Gas Production (% Theoretical Max) (anaerobic inoculum; ATA-syn 1100 ppm iBA, Day 15): 85 % Theoretical Max | inhibition of gas generation (anaerobic inoculum; iBA concentrations of up to 1100 parts per million (ppm)): did not inhibit gas generation | Partition coefficients (P) [HA] org/aq [2]: 1.91 mol/mol | KE (+A336, oleyl alcohol with 100 mM of Aliquat 336): 0.036 | KE (+TBA, oleyl alcohol with 100 mM of tributyl phosphate): 0.000 | KE (+TOA, oleyl alcohol with 100 mM of trioctyl amine): 0.010

CCCCCCCC/C=C\CCCCCCCCO [OA, oleyl alcohol]
Acetic Acid (mM), aqueous concentration after addition of extractant [6, 13]: 13.13 mM | Formic Acid (mM), aqueous concentration after addition of extractant [6, 13]: 11.96 mM | Isobutanol (mM), aqueous concentration after addition of extractant [6, 13]: 3.01 mM | Isobutyric Acid (mM), aqueous concentration after addition of extractant [6, 13]: 8.01 mM | MES (AU), aqueous concentration after addition of extractant [6, 13]: 6954908 AU | Phosphate (AU), aqueous concentration after addition of extractant [6, 13]: 656297 AU | Acetic Acid (mM), aqueous concentration after addition of extractant [6, 14]: 12.98 mM | Formic Acid (mM), aqueous concentration after addition of extractant [6, 14]: 12.68 mM | Isobutanol (mM), aqueous concentration after addition of extractant [6, 14]: 1.19 mM | Isobutyric Acid (mM), aqueous concentration after addition of extractant [6, 14]: 4.95 mM | MES (AU), aqueous concentration after addition of extractant [6, 14]: 7135183 AU | Phosphate (AU), aqueous concentration after addition of extractant [6, 14]: 673645 AU | Acetic Acid (mM), aqueous concentration after addition of extractant [6, 15]: 12.73 mM | Formic Acid (mM), aqueous concentration after addition of extractant [6, 15]: 13.05 mM | Isobutanol (mM), aqueous concentration after addition of extractant [6, 15]: 0.77 mM | Isobutyric Acid (mM), aqueous concentration after addition of extractant [6, 15]: 3.57 mM | MES (AU), aqueous concentration after addition of extractant [6, 15]: 7168671 AU | Phosphate (AU), aqueous concentration after addition of extractant [6, 15]: 676874 AU | performance of the butanologen (glucose consumption, isobutanol production, FIG. 4) (isobutanologen PNY 2242; 48 hours, extractant as LLX layer): performed best | C (g/c) [g/L], free glucose during the SSF (isobutanologen PNY 2242; EPT 3.67 h): 37.2 g/L | C (g/c) [g/L], free glucose during the SSF (isobutanologen PNY 2242; EPT 21.00 h): 34.60 g/L | C (g/c) [g/L], free glucose during the SSF (isobutanologen PNY 2242; EPT 28.00 h): 29.7 g/L | C (g/c) [g/L], free glucose during the SSF (isobutanologen PNY 2242; EPT 48.00 h): 1.20 g/L

CCCCCCCCN(CCCCCCCC)CCCCCCCC [TOA, tru-n-octylamine]
efficiency of extraction of isobutyric acid (100 mM extractant in oleyl alcohol): less efficient
